Here are results for eight compounds from PMC11077815, “Synthesis and antitumor activity of dolutegravir derivatives bearing 1,2,3-triazole moieties” (BMC Chemistry, 2024).

The structures appear in SMILES notation.

The subject of one data set is H460. Nature of the data set: CCK8 cell viability assay, H460. In kind it is cell-based, Human. The conditions noted are these: for IC50: H460, 48 h, CCK8, mean ± SE. How it is done:
(§1) At first, CCK8 assay was carried out to evaluate the anti-proliferative activity of dolutegravir-1,2,3-triazole derivatives against different cancer cell lines. The results of cell viability of three lung cancer cell lines A549, PC-9 and H460 in the presence of compounds 9 and 10 are summarized in Table 2. Cells were treated with different compounds at the concentration of 20 µM for 48 h. […] Human lung cancer cell lines A549, PC-9 and H460 were all obtained from ATCC. Cells were cultured in DMEM or RPMI 1640 medium containing 10% FBS and 1% penicillin/streptomycin at 37 °C with a 5% CO2-humidified atmosphere. CCK8 assay was used to measure cell viability. Cells with a density of 1 × 10^4 cells/well were seeded on the 96-well plates. After adhesion, cells were treated with different diluted compounds or vehicle control DMSO and continue cultured for 48 h. Then, CCK8 reagent was added for one hour incubation at 37 °C with 5% of CO2. Absorbance was measured using a microplate spectrophotometer (Thermo) at 450 nm. The ratio of cell viability of control was taken as 100%. […] Then IC50 of the compounds were investigated using the prism statistical software.
In general terms: Tetrazolium dyes change colour on reduction, which living cells bring about.

Data set [1] deals with HRM (Human Renal Mesangial) cell line. Nature of the data set: CCK8 cell viability assay, HRM normal cells (toxicity control). In kind it is cell-based. The conditions noted are these: HRM normal human cells, 48 h, CCK8, mean ± SE. How it is done:
Based on these preliminary results, compounds 9c, 9e, 9f, 9i, 9k, 9 L, 9p, 9q, 9t, 9u, 9v, 9w, 10c, 10e which were effective to most of the cell lines were chosen for the measurement of the half-maximal inhibitory concentration (IC50). […] HRM (Human Renal Mesangial) cell line was used as a control to study the toxicity of these compounds against normal human cells.
CCK8 assay was used to measure cell viability. Cells with a density of 1 × 10^4 cells/well were seeded on the 96-well plates. After adhesion, cells were treated with different diluted compounds or vehicle control DMSO and continue cultured for 48 h. Then, CCK8 reagent was added for one hour incubation at 37 °C with 5% of CO2. Absorbance was measured using a microplate spectrophotometer (Thermo) at 450 nm. The ratio of cell viability of control was taken as 100%. […] Then IC50 of the compounds were investigated using the prism statistical software.

The test system of a further data set is PC-9. Put plainly: CCK8 cell viability assay, PC-9. Type of data set: cell-based, Human. The settings on record: for IC50: PC9, 48 h, CCK8, mean ± SE. How it is done: as §1
A further data set deals with A549. Put plainly: CCK8 cell viability assay, A549. Type of data set: cell-based, Human. The settings on record: for IC50: A549, 48 h, CCK8, mean ± SE. How it is done: as §1
On the set-up of data set [2]: method as in PMID 35111871. The settings on record: preclinical study, dose 27 times greater than the clinical dose; cited from earlier work.
Setting [3] is: H460, 20 µM, 48 h, CCK8, control = 100%.
The mark [4] stands for this setting: PC9, 20 µM, 48 h, CCK8, control = 100%.
Where [5] appears, read: A549, 20 µM, 48 h, CCK8, control = 100%.

Broadly, the IC50 is the point on the concentration scale where inhibition reaches its midpoint. The low end stands for inhibition by little substance, the high end for a need for much substance. With `COc1c2n(cc(C(=O)Nc3cccc(-c4cn(-c5cccc(C)c5)nn4)c3)c1=O)C[C@@H]1OCC[C@@H](C)N1C2=O` [Compound 9f], the “Cell viability (100%)” value is given as 39.20% with H460 (setting [3]), 8.80% in the data set with PC-9 (setting [4]) and 33.47% with A549 (setting [5]). The IC50 in the data set on H460 is 19.6 ± 0.32 µM; in data set [1], greater than 50 µM; in the data set with PC-9, 4.67 ± 0.26 µM; in the data set on A549, 27.8 ± 0.56 µM.
With `CCc1ccccc1-n1cc(-c2cccc(NC(=O)c3cn4c(c(OC)c3=O)C(=O)N3[C@H](C)CCO[C@H]3C4)c2)nn1` [Compound 9k], the entries for the “Cell viability (100%)” value in the data set on H460 (setting [3]), with PC-9 (setting [4]) and with A549 (setting [5]) were 18.72%, 23.40% and 83.48%, respectively. The IC50 was 12.9 ± 0.8 µM in the data set with H460, greater than 50 µM in data set [1], 9.87 ± 0.19 µM in the data set on PC-9 and 20.7 ± 0.23 µM with A549.
What is called viability is a read-out of living cells in per cent, often relative to untreated cells. Turning to `C[C@@H]1CCO[C@H]2Cn3cc(C(=O)NCc4ccc(F)cc4F)c(=O)c(O)c3C(=O)N12` [DTG, Dolutegravir], the viability at 20 µM with H460 (Homo sapiens, NCI-H460, H460, 20 µM, 48 h, CCK8, control = 100%) came to 27.2%; in the data set with PC-9 (Homo sapiens, PC-9, PC9, 20 µM, 48 h, CCK8, control = 100%), 91.7%; with A549 (Homo sapiens, A549, 20 µM, 48 h, CCK8, control = 100%), 109%. Moreover, the “fertility and teratogenic toxicity” value in data set [2] was “no obvious fertility toxicity or teratogenic toxicity”.
As for `COc1c2n(cc(C(=O)Nc3cccc(-c4cn(-c5ccccc5Cl)nn4)c3)c1=O)C[C@@H]1OCC[C@@H](C)N1C2=O` [Compound 9v], the “Cell viability (100%)” value with H460 (setting [3]) is 38.13%; in the data set with PC-9 (setting [4]) it was 47.42%; in the data set on A549 (setting [5]), 54.06%. The IC50 in the data set on H460 is 16.2 ± 1.29 µM; in data set [1], greater than 50 µM; in the data set on PC-9 it was 11.6 ± 0.48 µM; in the data set on A549 it was greater than 50 µM.
Turning to `COc1c2n(cc(C(=O)Nc3cccc(-c4cn(-c5ccccc5I)nn4)c3)c1=O)C[C@@H]1OCC[C@@H](C)N1C2=O` [Compound 9w], the results for the “Cell viability (100%)” value in the data set on H460 (setting [3]), with PC-9 (setting [4]) and with A549 (setting [5]) were 30.63%, 55.21% and 57.94%, respectively. Also, the IC50 in the data set on H460 was 14.7 ± 2.83 µM; in data set [1], greater than 50 µM; with PC-9, 9.94 ± 0.36 µM; in the data set with A549 it was 33.7 ± 0.68 µM.
Regarding `COc1c2n(cc(C(=O)Nc3cccc(-c4cn(-c5ccccc5C(F)(F)F)nn4)c3)c1=O)C[C@@H]1OCC[C@@H](C)N1C2=O` [Compound 9c], the “Cell viability (100%)” value was 32.97% in the data set on H460 (setting [3]), 13.91% in the data set with PC-9 (setting [4]) and 9.48% in the data set with A549 (setting [5]). In addition, the IC50 was 11.4 ± 0.59 µM with H460, greater than 50 µM in data set [1], 4.03 ± 0.59 µM in the data set with PC-9 and 9.06 ± 0.88 µM in the data set on A549.
With `COc1c2n(cc(C(=O)Nc3cccc(-c4cn(-c5ccccc5Br)nn4)c3)c1=O)C[C@@H]1OCC[C@@H](C)N1C2=O` [Compound 9u], the “Cell viability (100%)” value was determined as 31.00% in the data set on H460 (setting [3]), 43.88% with PC-9 (setting [4]) and 64.09% in the data set with A549 (setting [5]). Moreover, the concentration for half-maximal inhibition (IC50) was 37.3 ± 2.25 µM with H460, greater than 50 µM in data set [1], 7.77 ± 0.37 µM with PC-9 and greater than 50 µM in the data set with A549.
Consider `COc1cccc(-n2cc(-c3cccc(NC(=O)c4cn5c(c(OC)c4=O)C(=O)N4[C@H](C)CCO[C@H]4C5)c3)nn2)c1` [Compound 9 L], for which the “Cell viability (100%)” value in the data set on H460 (setting [3]) worked out at 20.32%; with PC-9 (setting [4]), 47.77%; in the data set on A549 (setting [5]), 73.36%. In addition, the IC50 in the data set with H460 is 25.5 ± 0.43 µM; in data set [1] it was 43.3 ± 3.27 µM; in the data set on PC-9, 9.2 ± 0.65 µM; in the data set on A549, 44.3 ± 1.21 µM.
